Key:
FKBP = FKBP (Homo sapiens, UniProt P62942, F37V); conditions: F36V FKBP derivative vs wild-type FKBP; cited from earlier work
ARPE-19 cells = experiment: Shield-1 concentration dependent progeny virus production (TCID50 assay); assay type: cell-based, human; conditions: FKBP derivative fused to UL51 or UL52
Description: FKBP fusion proteins used in this study comprise an essential protein (IE1/2, UL51, UL52, UL79, UL84, UL87, IE1/2-UL51) fused to an FKBP derivative (ddIE1/2, ddUL51, ddUL52, ddUL79, ddUL84, ddUL87, and ddIE1/2-UL51). ARPE-19 cells were infected with the various rdCMV viruses comprising the noted fusion proteins, at a multiplicity of 0.01 PFU/cell for 1 hour, washed twice with fresh medium, and incubated in the growth medium containing 0, 0.05, 0.1 0.5 or 2 μM of Shield-1. Seven days post infection, the cell free virus was collected, and virus titers were determined by TCID50 assay on ARPE-19 cells in the presence of 2 μM of Shield 1.
Varying concentrations of Shld-1 were used in additional experiments to further assess viral replication in the presence or absence of Shld-1. ARPE-19 cells were infected by the gH expressing CMV that also contained a FKBP derivative fused to an essential protein at MOI of […]. After infection for 1 hour, the cells were washed twice with fresh medium to remove Shld-1. […] Virus titers were determined by a 50% Tissue Culture Infective Dose (TCID50) assay. Briefly, this dilution assay quantifies the amount of virus required to kill 50% of infected hosts. […] After incubation, the percentage of cell death (i.e. infected cells) was manually observed and recorded for each virus dilution. […]

Chain of FKBP (P62942 2-108 F37V limits assumed): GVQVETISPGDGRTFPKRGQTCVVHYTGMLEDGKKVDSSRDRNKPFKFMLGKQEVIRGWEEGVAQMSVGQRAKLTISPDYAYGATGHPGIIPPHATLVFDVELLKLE

Compound: CC[C@H](C(=O)N1CCCC[C@H]1C(=O)O[C@H](CCc1ccc(OC)c(OC)c1)c1cccc(OCCN2CCOCC2)c1)c1cc(OC)c(OC)c(OC)c1 [Shield-1]
- Binding to the F36V derivative compared to wild-type FKBP (tighter) (FKBP): about 1,000 fold
- Shield-1 concentration that can effectively turn on or off viral replication (ARPE-19 cells): 50 nM

Source: patent publication US20150307850A1, “CONDITIONAL REPLICATING VIRAL VECTORS” (priority 2012, published 2015)
